# According to ChEMBL document CHEMBL1149601, “Molecular design, chemical synthesis, and biological evaluation of '4-1' pentacyclic aryl/heteroaryl-imidazonaphthalimides” (Bioorg Med Chem, 2007):
# Experiments:
# SMMC-7721 = assay: Growth inhibition of human SMMC7721 cells by MTT assay; assay type: functional, cell-based
# HL-60 = assay: Growth inhibition of human HL60 cells by MTT assay; assay type: functional, cell-based
# P388 = assay: Growth inhibition of mouse P388 cells by MTT assay; assay type: functional, cell-based
# A549 = assay: Growth inhibition of human A549 cells by SRB assay; assay type: functional, cell-based
# DNA = assay: Binding affinity to calf thymus DNA; assay type: nucleic-acid assay; conditions: Bos taurus
# HeLa = assay: Growth inhibition of human HeLa cells by MTT assay; assay type: functional, cell-based
IC50 (SMMC-7721) [µM],IC50 (HL-60) [µM],IC50 (P388) [µM],IC50 (A549) [µM],ΔTm (DNA) [°C],IC50 (HeLa) [µM],SMILES
2.99,3.03,0.21,0.45,5.7,3.3,CN(C)CCN1C(=O)c2cccc3c2c(cc2[nH]c(-c4ccc[nH]4)nc23)C1=O
> 100,23,1.1,17.8,6.3,13.1,CN(C)CCN1C(=O)c2cccc3c2c(cc2[nH]c(-c4ccc(O)cc4)nc23)C1=O
1.35,0.46,3.72,2.16,7,0.21,COc1ccc(-c2nc3c(cc4c5c(cccc53)C(=O)N(CCN(C)C)C4=O)[nH]2)cc1
3.36,0.3,0.77,9.33,3.8,2.71,CN(C)CCN1C(=O)c2cccc3c2c(cc2[nH]c(-c4ccccn4)nc23)C1=O
1.29,1.33,2.31,9.97,4,1.16,CN(C)CCN1C(=O)c2cccc3c2c(cc2[nH]c(-c4cccnc4)nc23)C1=O
1.76,2.66,5.65,60.9,4.8,5.35,CN(C)CCN1C(=O)c2cccc3c2c(cc2[nH]c(-c4ccncc4)nc23)C1=O
1.3,6.24,0.65,7.23,6.8,1.73,CN(C)CCN1C(=O)c2cccc3c2c(cc2[nH]c(-c4ccco4)nc23)C1=O

# More lines, now with the values behind:
SMILES,IC50 (SMMC-7721) [µM],IC50 (HL-60) [µM],IC50 (P388) [µM],IC50 (A549) [µM],ΔTm (DNA) [°C],IC50 (HeLa) [µM]
CN(C)CCN1C(=O)c2cccc3c2c(cc2[nH]c(-c4ccsc4)nc23)C1=O,0.93,0.58,0.16,8.59,8.4,0.54
CN(C)CCN1C(=O)c2cccc3c2c(cc2[nH]c(-c4ccccc4)nc23)C1=O,3.36,0.86,0.86,7.54,7.2,0.4
Cc1ccc(-c2nc3c(cc4c5c(cccc53)C(=O)N(CCN(C)C)C4=O)[nH]2)cc1,0.58,1.04,5.5,5.53,6.6,0.32
CN(C)CCN1C(=O)c2cccc3c2c(cc2[nH]c(-c4ccc(N(C)C)cc4)nc23)C1=O,2.86,1.08,1.68,8.5,12.1,0.25
CN(C)CCN1C(=O)c2cccc3c2c(cc2[nH]c(-c4cccs4)nc23)C1=O,3.27,0.59,4.15,6.67,6.9,1.34
CN(C)CCN1C(=O)c2cccc3c2c(cc2[nH]c(-c4ccc(Cl)cc4)nc23)C1=O,0.27,3.28,0.95,9.13,7.1,0.28
COc1ccc(-c2nc3c(cc4c5c(cccc53)C(=O)N(CCN(C)C)C4=O)[nH]2)cc1OC,0.22,10.4,1.07,0.6,13.3,5.19
CN(C)CCN1C(=O)c2cccc3c2c(cc2[nH]c(-c4ccc(C(F)(F)F)cc4)nc23)C1=O,1.63,4.9,0.71,26.2,4.8,0.4
CN(C)CCN1C(=O)c2cccc3c2c(cc2[nH]c(-c4ccoc4)nc23)C1=O,0.88,5.21,0.71,7.48,6.7,13.9
CN(C)CCN1C(=O)c2cccc3c2c(cc2[nH]c(-c4cccn4C)nc23)C1=O,2.9,3.66,0.21,0.41,6.2,7.98
COc1cc(-c2nc3c(cc4c5c(cccc53)C(=O)N(CCN(C)C)C4=O)[nH]2)ccc1O,> 100,50.5,1.92,5.08,7.8,> 100
CN(C)CCN1C(=O)c2cccc3cc(N)cc(c23)C1=O [AMONAFIDE],4.15,1.63,4.56,13,–,1.4
CCOc1ccc(-c2nc3c(cc4c5c(cccc53)C(=O)N(CCN(C)C)C4=O)[nH]2)cc1,1.02,4.58,2.48,14.7,10.5,0.52
